In patent publication US20100137313A1 (ASTRAZENECA AB, priority 2008, published 2010):

Molecular target: S. pneumoniae Topoisomerase IV ATPase (ParE) (Streptococcus pneumoniae serotype 4, UniProt Q59961)
Assay: S. pneumoniae Topoisomerase IV ATPase inhibition
Format: biochemical
Conditions: values marked * are an average of two or more data points, read-out: % Inh (13 μM) of S. pneumoniae Topoisomerase IV ATPase
Method in brief: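 ParE ATPase (1.25 nM) run with 160 μM ATP and 5 μg/ml sheared salmon sperm DNA in Tris pH 8.0, Mg2+, glycerol, DTT, Brij-35. Phosphate released read by malachite green/molybdate absorbance at 650 nm. IC50 from 10 compound concentrations; DMSO (2%) as 0% and EDTA (20 μM) as 100% inhibition.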

Sequence of S. pneumoniae Topoisomerase IV ATPase (ParE) (Q59961 whole entry): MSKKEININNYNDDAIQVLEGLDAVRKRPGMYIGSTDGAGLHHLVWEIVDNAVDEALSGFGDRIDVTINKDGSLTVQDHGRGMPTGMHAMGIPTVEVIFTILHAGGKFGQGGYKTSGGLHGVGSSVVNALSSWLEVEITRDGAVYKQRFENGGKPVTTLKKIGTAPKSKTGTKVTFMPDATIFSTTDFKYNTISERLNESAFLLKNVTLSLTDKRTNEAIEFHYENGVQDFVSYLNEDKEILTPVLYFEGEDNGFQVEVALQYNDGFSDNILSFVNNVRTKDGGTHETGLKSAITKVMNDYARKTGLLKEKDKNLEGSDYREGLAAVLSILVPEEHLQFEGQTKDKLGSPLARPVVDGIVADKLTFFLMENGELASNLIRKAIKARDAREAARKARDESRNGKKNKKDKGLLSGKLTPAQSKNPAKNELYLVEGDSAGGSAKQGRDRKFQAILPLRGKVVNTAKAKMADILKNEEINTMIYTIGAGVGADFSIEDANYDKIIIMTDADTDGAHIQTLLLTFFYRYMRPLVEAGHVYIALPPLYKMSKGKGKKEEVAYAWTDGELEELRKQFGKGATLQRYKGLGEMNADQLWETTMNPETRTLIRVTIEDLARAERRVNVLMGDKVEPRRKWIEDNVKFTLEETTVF

Structure (SMILES)	inhibition at 13 µM
Cc1cc(C(F)F)nn1-c1nc(Nc2ccc(F)c(Cl)c2)ncc1-c1cncc(C(=O)O)c1 [Example 530, 5-{2-[(3-chloro-4-fluorophenyl)amino]-4-[3-(difluoromethyl)-5-methyl-1H-pyrazol-1-yl]pyrimidin-5-yl}pyridine-3-carboxylic acid]	100%
Cc1cc(C(F)F)n(-c2nc(Nc3ccc(F)c(Cl)c3)ncc2-c2cncc(C(=O)O)c2)n1 [Example 531, 5-{2-[(3-chloro-4-fluorophenyl)amino]-4-[5-(difluoromethyl)-3-methyl-1H-pyrazol-1-yl]pyrimidin-5-yl}pyridine-3-carboxylic acid]	100%
O=C(O)c1cncc(-c2cnc(Nc3ccc(F)c(Cl)c3)nc2-n2nc(C(F)F)cc2C(F)F)c1 [Example 532, 5-{4-[3,5-bis(difluoromethyl)-1H-pyrazol-1-yl]-2-[(3-chloro-4-fluorophenyl)amino]-pyrimidin-5-yl}pyridine-3-carboxylic acid]	100%
O=C(O)c1cncc(-c2cnc(Nc3ccc(F)c(Cl)c3)nc2-n2ccc(-c3ccsc3)n2)c1 [Example 533, 5-{2-[(3-chloro-4-fluorophenyl)amino]-4-[3-(thiophen-3-yl)-1H-pyrazol-1-yl]pyrimidin-5-yl}pyridine-3-carboxylic acid]	100%
CC(=O)Nc1ccn(-c2nc(Nc3ccc(F)c(Cl)c3)ncc2-c2cncc(C(=O)O)c2)n1 [Example 534, 5-{4-[3-(acetylamino)-1H-pyrazol-1-yl]-2-[(3-chloro-4-fluorophenyl)amino]pyrimidin-5-yl}pyridine-3-carboxylic acid]	49%
O=C(O)c1cncc(-c2cnc(Nc3ccc(F)c(Cl)c3)nc2-n2cc(-c3ccccn3)cn2)c1 [Example 535]	100%
O=C(O)c1cncc(-c2cnc(Nc3ccc(F)c(Cl)c3)nc2-n2cc(-c3ccncn3)cn2)c1 [Example 536, 5-{2-[(3-chloro-4-fluorophenyl)amino]-4-[4-(pyrimidin-4-yl)-1H-pyrazol-1-yl]pyrimidin-5-yl}pyridine-3-carboxylic acid]	100%
Cc1cc(-c2nccs2)nn1-c1nc(Nc2ccc(F)c(Cl)c2)ncc1-c1cncc(C(N)=O)c1 [Example 537, 5-{2-[(3-chloro-4-fluorophenyl)amino]-4-[5-methyl-3-(1,3-thiazol-2-yl)-1H-pyrazol-1-yl]pyrimidin-5-yl}pyridine-3-carboxamide]	100%
Cc1cc(C(F)F)nn1-c1nc(Nc2ccc(F)c(Cl)c2)ncc1-c1cncc(C(N)=O)c1 [Example 538, 5-{2-[(3-chloro-4-fluorophenyl)amino]-4-[3-(difluoromethyl)-5-methyl-1H-pyrazol-1-yl]pyrimidin-5-yl}pyridine-3-carboxamide]	100%
NC(=O)c1cncc(-c2cnc(Nc3ccc(F)c(Cl)c3)nc2-n2nc(C(F)F)cc2C(F)F)c1 [Example 539, 5-{4-[3,5-bis(difluoromnethyl)-1H-pyrazol-1-yl]-2-[(3-chloro-4-fluorophenyl)amino]pyrimidin-5-yl}pyridine-3-carboxamide]	100%
NC(=O)c1cncc(-c2cnc(Nc3ccc(F)c(Cl)c3)nc2-n2ccc(-c3ccsc3)n2)c1 [Example 540, 5-{2-[(3-chloro-4-fluorophenyl)amino]-4-[3-(thiophen-3-yl)-1H-pyrazol-1-yl]pyrimidin-5-yl}pyridine-3-carboxamide]	100%
CC(=O)Nc1ccn(-c2nc(Nc3ccc(F)c(Cl)c3)ncc2-c2cncc(C(N)=O)c2)n1 [Example 541, 5-{4-[3-(acetylamino)-1H-pyrazol-1-yl]-2-[(3-chloro-4-fluorophenyl)amino]pyrimidin-5-yl}pyridine-3-carboxamide]	97%
NC(=O)c1cncc(-c2cnc(Nc3ccc(F)c(Cl)c3)nc2-n2cc(-c3ccccn3)cn2)c1 [Example 542]	85%
NC(=O)c1cncc(-c2cnc(Nc3ccc(F)c(Cl)c3)nc2-n2cc(-c3ccncn3)cn2)c1 [Example 543, 5-{2-[(3-chloro-4-fluorophenyl)amino]-4-[4-(pyrimidin-4-yl)-1H-pyrazol-1-yl]pyrimidin-5-yl}pyridine-3-carboxamide]	68%
CONC(=O)c1cncc(-c2cnc(Nc3ccc(F)c(Cl)c3)nc2-n2nc(-c3nccs3)cc2C)c1 [Example 545, 5-{2-[(3-chloro-4-fluorophenyl)amino]-4-[5-methyl-3-(1,3-thiazol-2-yl)-1H-pyrazol-1-yl]pyrimidin-5-yl}-N-methoxypyridine-3-carboxamide]	100%
CONC(=O)c1cncc(-c2cnc(Nc3ccc(F)c(Cl)c3)nc2-n2nc(C(F)F)cc2C)c1 [Example 546, 5-{2-[(3-chloro-4-fluorophenyl)amino]-4-[3-(difluoromethyl)-5-methyl-1H-pyrazol-1-yl]pyrimidin-5-yl}-N-methoxypyridine-3-carboxamide]	100%
CONC(=O)c1cncc(-c2cnc(Nc3ccc(F)c(Cl)c3)nc2-n2nc(C(F)F)cc2C(F)F)c1 [Example 547, 5-{4-[3,5-bis(difluoromethyl)-1H-pyrazol-1-yl]-2-[(3-chloro-4-fluorophenyl)amino]pyrimidin-5-yl}-N-methoxypyridine-3-carboxamide]	71%
CONC(=O)c1cncc(-c2cnc(Nc3ccc(F)c(Cl)c3)nc2-n2ccc(-c3ccsc3)n2)c1 [Example 548, 5-{2-[(3-chloro-4-fluorophenyl)amino]-4-[3-(thiophen-3-yl)-1H-pyrazol-1-yl]pyrimidin-5-yl}-N-methoxypyridine-3-carboxamide]	95%
CONC(=O)c1cncc(-c2cnc(Nc3ccc(F)c(Cl)c3)nc2-n2ccc(NC(C)=O)n2)c1 [Example 549, 5-{4-[3-(acetylamino)-1H-pyrazol-1-yl]-2-[(3-chloro-4-fluorophenyl)amino]-pyrimidin-5-yl}-N-methoxypyridine-3-carboxamide]	94%
CONC(=O)c1cncc(-c2cnc(Nc3ccc(F)c(Cl)c3)nc2-n2cc(-c3ccccn3)cn2)c1 [Example 550, 5-{2-[(3-chloro-4-fluorophenyl)amino]-4-[4-(pyridin-2-yl)-1H-pyrazol-1-yl]pyrimidin-5-yl}-N-methoxypyridine-3-carboxamide]	100%
CONC(=O)c1cncc(-c2cnc(Nc3ccc(F)c(Cl)c3)nc2-n2cc(-c3ccncn3)cn2)c1 [Example 551, 5-{2-[(3-chloro-4-fluorophenyl)amino]-4-[4-(pyrimidin-4-yl)-1H-pyrazol-1-yl]pyrimidin-5-yl}-N-methoxypyridine-3-carboxamide]	100%
Cc1cc(-c2nccs2)nn1-c1nc(Nc2ccc(F)c(Cl)c2)ncc1-c1cccc(/C=C/C(=O)O)c1 [Example 562, (2E)-3-(3-{2-[(3-chloro-4-fluorophenyl)amino]-4-[5-methyl-3-(1,3-thiazol-2-yl)-1H-pyrazol-1-yl]pyrimidin-5-yl}phenyl)prop-2-enoic acid]	100%
Cc1cc(C(F)F)nn1-c1nc(Nc2ccc(F)c(Cl)c2)ncc1-c1cccc(/C=C/C(=O)O)c1 [Example 563, (2E)-3-(3-{2-[(3-chloro-4-fluorophenyl)amino]-4-[3-(difluoromethyl)-5-methyl-1H-pyrazol-1-yl]pyrimidin-5-yl}phenyl)prop-2-enoic acid]	100%
O=C(O)/C=C/c1cccc(-c2cnc(Nc3ccc(F)c(Cl)c3)nc2-n2nc(C(F)F)cc2C(F)F)c1 [Example 564, (2E)-3-(3-{4-[3,5-bis(difluoromethyl)-1H-pyrazol-1-yl]-2-[(3-chloro-4-fluorophenyl)amino]pyrimidin-5-yl}phenyl)prop-2-enoic acid]	92%
O=C(O)/C=C/c1cccc(-c2cnc(Nc3ccc(F)c(Cl)c3)nc2-n2ccc(-c3ccsc3)n2)c1 [Example 565, (2E)-3-(3-{2-[(3-chloro-4-fluorophenyl)amino]-4-[3-(thiophen-3-yl)-1H-pyrazol-1-yl]pyrimidin-5-yl}phenyl)prop-2-enoic acid]	100%
CC(=O)Nc1ccn(-c2nc(Nc3ccc(F)c(Cl)c3)ncc2-c2cccc(/C=C/C(=O)O)c2)n1 [Example 566, (2E)-3-(3-{4-[3-(acetylamino)-1H-pyrazol-1-yl]-2-[(3-chloro-4-fluorophenyl)amino]pyrimidin-5-yl}phenyl)prop-2-enoic acid]	52%
O=C(O)/C=C/c1cccc(-c2cnc(Nc3ccc(F)c(Cl)c3)nc2-n2cc(-c3ccccn3)cn2)c1 [Example 567, (2E)-3-(3-{2-[(3-chloro-4-fluorophenyl)amino]-4-[4-(pyridin-2-yl)-1H-pyrazol-1-yl]pyrimidin-5-yl}phenyl)prop-2-enoic acid]	100%
O=C(O)/C=C/c1cccc(-c2cnc(Nc3ccc(F)c(Cl)c3)nc2-n2cc(-c3ccncn3)cn2)c1 [Example 568, (2E)-3-(3-{2-[(3-chloro-4-fluorophenyl)amino]-4-[4-(pyrimidin-4-yl)-1H-pyrazol-1-yl]pyrimidin-5-yl}phenyl)prop-2-enoic acid]	100%
O=C(O)c1cccc(-c2cnc(Nc3ccc(F)c(Cl)c3)nc2-n2ccc(C(F)(F)F)n2)c1 [Example 570, 3-(2-(3-chloro-4-fluorophenylamino)-4-(3-(trifluoromethyl)-1H-pyrazol-1-yl)pyrimidin-5-yl)benzoic acid]	91%
CC1(C)[C@@H](C(=O)O)[C@@H]1c1cccc(-c2cnc(Nc3ccc(F)cc3)nc2-n2ccc(C(F)(F)F)n2)c1 [Example 571, (1,3-trans)-3-(3-(2-(4-fluorophenylamino)-4-(3-(trifluoromethyl)-1H-pyrazol-1-yl)pyrimidin-5-yl)phenyl)-2,2-dimethylcyclopropanecarboxylic acid]	17%
